Data: patent US20240308991A1, “PROCESS FOR THE SYNTHESIS OF REACTIVE CAR[…] ANTIGEN […] C[…] A CARRIER MATERIAL” (KORANEX CAPITAL, priority 2021, published 2024)

melting point: 230 to 232 °C
SMILES: C=CCO[C@H]1O[C@H](CO)[C@H](O)[C@H](O[C@@H]2O[C@H](CO)[C@H](O)[C@H](O)[C@H]2O)[C@H]1NC(C)=O
